These results are taken from patent publication US20230213520A1, “IN VITRO METHOD FOR THE PROGNOSIS OF DISEASE PROGRESSION IN A PATIENT THAT SUFFERS FROM OR IS AT RISK OF DEVELOPING A SOLID TUMOR” (Bergonié Institute, priority 2020, published 2023).

A short description of data set [1]: REGOMUNE phase II study: safety (adverse events, CTCAE v5.0). The arrangement: species or system human. Particulars: in vivo. On the procedure: After an assessment of eligibility, patients received Regorafenib 160 mg per day on a three weeks on/one week off schedule, in cycles of 28 days. Avelumab treatment began on Day 15 cycle 1, by intravenous infusion once every 2 weeks. Treatment was continued until disease progression, unacceptable toxicity, investigator's decision to discontinue, or withdrawal of patient consent. Participants were monitored for adverse events at every follow-up assessment. Adverse events were graded according to National Cancer Institute Common Terminology Criteria for Adverse Events version 5.0. Laboratory assessments were done at baseline, and every 2 weeks afterwards until treatment discontinuation. Regorafenib dose modifications to manage adverse events were allowed (see study protocol). The dose of Regorafenib could be reduced to 120 mg and then to 80 mg. […] Tumor lesions were assessed according to RECIST version 1.1 at baseline (within 4 weeks prior to Cycle 1 Day 1), and every 8 weeks until disease progression or the start of another treatment. […]
All enrolled patients who initiated the study treatment were included in the safety analysis. […] The median follow-up was calculated using the reverse Kaplan-Meier method. […] Quantitative variables were described using the median and range, and qualitative variables were described using frequency, percentage and 95% confidence interval (binomial law). […]

Data set [2] concerns immunosuppressive macrophage infiltration. Particulars: preclinical model of metastatic colorectal cancer; cited from earlier work.
In data set [3] the test system is metastatic colorectal cancer. Particulars: cited from earlier work.
[4] abbreviates: Regorafenib single agent in addition to supportive care, pivotal study.

“And” between values parts separate entries of the source, which are not always exact repeats. Equal entries are not always repeated.

Take Avelumab: the “Patients with dose reduction or temporary treatment discontinuation because of a drug-related adverse event” value in data set [1] is given as 17 patients.

For `CNC(=O)c1cc(Oc2ccc(NC(=O)Nc3ccc(Cl)c(C(F)(F)F)c3)c(F)c2)ccn1` [Regorafenib], in data set [1] (human), the “Patients with dose reduction or temporary treatment discontinuation because of a drug-related adverse event” value is on record as 41 patients. The “Effect on immunosuppressive macrophage infiltration” value in data set [2] is “reduce immunosuppressive macrophage infiltration”. Also, the “Patients with grade 3 or 4 treatment-related adverse events that needed some dose reduction” value in data set [3] (CORRECT (as well as CONCUR) study, single agent) is given as “up to 54%”. In data set [3] (setting [4]), the Median overall survival is recorded as 6.4 months; the Median progression-free survival is 1.9 months and 2 months. Also, the Objective response rate in data set [3] (pivotal randomized study) is 1%.
